Here are results for 42 molecules from patent US11001590B2, “Pyrazolopyrimidine derivatives” (BAYER ANIMAL HEALTH GMBH, priority 2016, dated 2021).

For series [1], the target named is C. elegans Slo-1a (Caenorhabditis elegans, UniProt Q95V25). Kind of series: In vitro assay 1: C. elegans Slo-1a, action at a recombinant C. elegans CHO cell line (membrane potential measurement).
Protocol: In Vitro Assay 1: C. Eleqans Slo-La—Action at a Recombinant C. elegans Cell Line
Cells were cultured at 37° C. and 5% CO2 in MEMalpha with Gutamax I (Invitrogen, Nr.: 32571), supplemented with 10% (v/v) heat inactivated fetal bovine serum (Invitrogen, Nr.: 10500), G418 (1 mg/ml, Invitrogen, Nr.: 10131). Cells were detached using Accutase (Sigma, Nr.: A6964).
Membrane Potential Measurements
Laboratory compound testing was performed on 384-well microtiter plates (MTPs, Greiner, Nr.: 781092). 8000 cells/well were plated onto 384-well MTPs and cultured for 20 to 24 hours at 37° C. and 5% CO2. After removal of the cell culture medium, the cells were washed once with tyrode (150 mM NaCl, 0.3 mM KCl, 2 mM CaCl2, 1 mM MgCl2, 0.8 mM NaH2PO4, 5 mM Glucose, 28 mM Hepes, pH 7.4) and then loaded with the voltage sensitive dye of the Membrane Potential Assay Kit diluted in tyrode for 1 h at room temperature.
After starting the measurement of fluorescence using a FLIPR Tetra (Molecular Devices, Exc. 510-545 nm, Emm. 565-625 nm), test compounds were added followed by the addition of KCl tyrode (final assay concentration: 70 mM KCl, 2 mM CaCl2, 1 mM MgCl2, 0.8 mM NaH2PO4, 5 mM Glucose, 28 mM Hepes, pH 7.4, including the voltage sensitive dye). The measurement was completed after 7 minutes.
Series [2] is described as follows: log P by HPLC on reversed phase columns (Method L0; [a] acidic, [b] neutral range).
Protocol: Calibration was done with straight-chain alkan-2-ones (with 3 to 16 carbon atoms) with known log P values (measurement of log P values using retention times with linear interpolation between successive alkanones). Lambda-max-values were determined using UV-spectra from 200 nm to 400 nm and the peak values of the chromatographic signals.
The test system of series [3] is Dirofilaria immitis microfilariae. Kind of series: In vitro assay 3: Dirofilaria immitis microfilariae (DIROIM L1), motility. To be noted: 72 h, reduction of motility vs negative control, 72 h incubation.

pEC50: −log10 of the molar value.

Chain of C. elegans Slo-1a (Q95V25 whole entry): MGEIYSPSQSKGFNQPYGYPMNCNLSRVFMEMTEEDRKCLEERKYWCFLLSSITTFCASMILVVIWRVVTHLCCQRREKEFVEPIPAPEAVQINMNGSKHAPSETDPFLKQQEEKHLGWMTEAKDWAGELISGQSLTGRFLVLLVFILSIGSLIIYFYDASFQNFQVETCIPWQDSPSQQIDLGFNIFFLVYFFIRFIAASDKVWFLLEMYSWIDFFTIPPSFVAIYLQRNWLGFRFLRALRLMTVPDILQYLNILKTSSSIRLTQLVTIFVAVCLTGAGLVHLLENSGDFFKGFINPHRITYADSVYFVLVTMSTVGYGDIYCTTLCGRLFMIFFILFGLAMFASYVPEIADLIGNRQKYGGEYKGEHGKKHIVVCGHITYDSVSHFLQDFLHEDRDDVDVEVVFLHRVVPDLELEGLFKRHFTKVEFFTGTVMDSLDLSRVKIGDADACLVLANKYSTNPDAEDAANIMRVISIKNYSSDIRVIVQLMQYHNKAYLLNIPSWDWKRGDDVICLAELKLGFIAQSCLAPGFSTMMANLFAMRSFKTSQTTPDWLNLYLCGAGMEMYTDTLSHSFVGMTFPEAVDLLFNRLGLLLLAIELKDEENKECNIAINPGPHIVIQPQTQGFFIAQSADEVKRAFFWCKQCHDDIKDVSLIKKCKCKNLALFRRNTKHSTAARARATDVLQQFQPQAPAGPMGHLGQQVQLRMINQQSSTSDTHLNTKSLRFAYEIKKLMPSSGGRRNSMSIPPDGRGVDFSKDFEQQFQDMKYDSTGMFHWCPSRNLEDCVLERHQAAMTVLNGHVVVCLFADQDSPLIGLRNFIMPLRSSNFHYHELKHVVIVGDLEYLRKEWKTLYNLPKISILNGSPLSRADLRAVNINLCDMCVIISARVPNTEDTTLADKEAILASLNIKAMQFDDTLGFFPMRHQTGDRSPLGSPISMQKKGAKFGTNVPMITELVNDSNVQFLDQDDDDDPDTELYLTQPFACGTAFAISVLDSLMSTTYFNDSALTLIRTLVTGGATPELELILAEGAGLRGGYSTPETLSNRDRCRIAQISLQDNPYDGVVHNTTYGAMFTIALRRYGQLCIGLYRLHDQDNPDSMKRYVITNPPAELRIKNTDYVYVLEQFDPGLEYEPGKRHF

For the molecule `Cc1nn2c(C(C)C)c(C(=O)N[C@H]3CCc4ccccc43)cnc2c1-c1cccc(OC(F)(F)F)c1` [Example 309], in series [1], the pEC50 is 7.50. In addition, the chromatographic logP in series [2] stood at 5.48. Further, the EC50 in series [3] is below 10 µg/mL.
The corresponding values for `COc1cc(-c2c(C)nn3c(C(C)C)c(C(=O)N[C@H]4CCc5ccccc54)cnc23)cc(C(F)(F)F)c1` [Example 312] are 7.60, 5.41 and below 10 µg/mL.
`Cc1nn2c(C(C)C)c(C(=O)N[C@H]3CCc4ccccc43)cnc2c1-c1ccnc(Cl)c1` [Example 313]: the negative-log EC50 (pEC50) in series [1] is 6.80. The chromatographic logP in series [2] came to 4.23. The same molecule yielded an EC50 in series [3] below 10 µg/mL.
As to `Cc1nn2c(C(C)C)c(C(=O)N[C@H]3CCc4ccccc43)cnc2c1-c1cncc(Cl)c1` [Example 314], the pEC50 in series [1] was 7.80. The molecule also gave a chromatographic logP in series [2] of 4.19. In addition, the EC50 in series [3] was below 0.1 µg/mL.
The corresponding values for `Cc1nn2c(C(C)C)c(C(=O)N[C@H]3CCc4ccccc43)cnc2c1-c1cccc(NC(=O)C(F)(F)F)c1` [Example 315] are 6.60, 4.28 and below 1 µg/mL.
Consider `Cc1nn2c(C(C)C)c(C(=O)N[C@H]3CCc4ccccc43)cnc2c1-c1cccc(OCC2CC2)c1` [Example 319], for which the pEC50 in series [1] is 7.60. The molecule also showed a chromatographic logP in series [2] of 5.28. Besides, the EC50 in series [3] was below 1 µg/mL.
In the same order, the values of `Cc1nn2c(C(C)C)c(C(=O)N[C@H]3CCc4ccccc43)cnc2c1-c1cccc(OCC#N)c1` [Example 320] are 7.30, 4.09 and below 10 µg/mL.
In the same order, the values of `Cc1nn2c(C(C)C)c(C(=O)N[C@H]3CCc4ccccc43)cnc2c1-c1cccc(OC(C)C)c1` [Example 321] are 8.00, 5.28 and below 1 µg/mL.
In the same order, the values of `Cc1nn2c(C(C)C)c(C(=O)N[C@H]3CCc4ccccc43)cnc2c1-c1cccc(N2CCCC2)c1` [Example 329] are 7.60, 5.44 and below 10 µg/mL.
Turning to `Cc1nn2c(C(C)C)c(C(=O)N[C@H]3CCc4ccccc43)cnc2c1-c1ccc(OC(F)(F)F)cc1` [Example 331], the negative logarithm of the EC50 (pEC50) in series [1] is 6.60. Also, the chromatographic logP in series [2] was 5.41. Moreover, the EC50 in series [3] is below 10 µg/mL.
The corresponding values for `Cc1nn2c(C(C)C)c(C(=O)N[C@H]3CCc4ccccc43)cnc2c1-c1ccc(C(F)(F)F)cc1` [Example 332] are 7.80, 5.32 and below 1 µg/mL.
The corresponding values for `Cc1nn2c(C(C)C)c(C(=O)N[C@H]3CCc4ccccc43)cnc2c1-c1ccc(C(F)F)cc1` [Example 334] are 7.60, 4.63 and below 10 µg/mL.
In the same order, the values of `COCc1ccc(-c2c(C)nn3c(C(C)C)c(C(=O)N[C@H]4CCc5ccccc54)cnc23)cc1` [Example 340] are 7.40, 4.41 and below 1 µg/mL.
Take `CNc1ccc(-c2c(C)nn3c(C(C)C)c(C(=O)N[C@H]4CCc5ccccc54)cnc23)cc1` [Example 341]: the pEC50 in series [1] is 6.70. In series [2], this molecule displayed a chromatographic logP of 3.32. The molecule also registered an EC50 in series [3] below 10 µg/mL.
The corresponding values for `Cc1nn2c(C(C)C)c(C(=O)N[C@H]3CCc4ccccc43)cnc2c1-c1ccc(N(C)C)cc1` [Example 342] are 6.70, 3.91 and below 10 µg/mL.
For `Cc1nn2c(C(C)C)c(C(=O)N[C@H]3CCCc4ccccc43)cnc2c1-c1ccc(F)cc1` [Example 343], the negative logarithm of the EC50 (pEC50) in series [1] was 7.70. For the same molecule, the chromatographic logP in series [2] amounted to 4.95. In series [3], this molecule gave an EC50 below 10 µg/mL.
On to `Cc1nn2c(C(C)C)c(C(=O)N[C@H]3CCCc4ccccc43)cnc2c1-c1cccc(OC(F)(F)F)c1` [Example 345], for which the pEC50 in series [1] is 7.90. The same molecule returned a chromatographic logP in series [2] of 5.82. This molecule came in with an EC50 in series [3] below 1 µg/mL.
Take `COc1cccc(-c2c(C)nn3c(C(C)C)c(C(=O)N[C@H]4CCCc5ccccc54)cnc23)c1` [Example 346]: the pEC50 in series [1] is 7.90. In series [2], the chromatographic logP was 4.82. The molecule also returned an EC50 in series [3] below 0.1 µg/mL.
Turning to `Cc1nn2c(C(C)C)c(C(=O)N[C@H]3CCCc4ccccc43)cnc2c1-c1cccc(F)c1` [Example 347], the pEC50 in series [1] is 7.40. The molecule also came in with a chromatographic logP in series [2] of 5.04. The molecule also displayed a concentration for a half-maximal effect (EC50) in series [3] below 1 µg/mL.
The corresponding values for `Cc1nn2c(C(C)C)c(C(=O)N[C@H]3CCc4ccccc43)cnc2c1-c1cccc(CN2CCOCC2)c1` [Example 354] are 6.40, 2.01 and below 10 µg/mL.
For the molecule `CCN(CC)Cc1cccc(-c2c(C)nn3c(C(C)C)c(C(=O)N[C@H]4CCc5ccccc54)cnc23)c1` [Example 355], the pEC50 in series [1] is 5.60. In series [2], this molecule registered a chromatographic logP of 2.12. In addition, in series [3], the EC50 is below 10 µg/mL.
The corresponding values for `Cc1nn2c(C(C)C)c(C(=O)N[C@H]3CCc4ccccc43)cnc2c1-c1cccc(N2CCCCC2)c1` [Example 356] are 6.80, 3.25 and below 10 µg/mL.
In the same order, the values of `Cc1nn2c(C3CC3)c(C(=O)N[C@H]3CCc4ccccc43)cnc2c1-c1cccc(OC(F)(F)F)c1` [Example 360] are 7.90, 4.72 and below 1 µg/mL.
As to `Cc1nn2c(C(C)C)c(C(=O)N[C@H]3CCCc4ccccc43)cnc2c1-c1cccc(N(C)C)c1` [Example 361], the pEC50 in series [1] was 7.80. The same molecule registered a chromatographic logP in series [2] of 4.32. The same molecule came in with an EC50 in series [3] below 1 µg/mL.
In the same order, the values of `Cc1nn2c(C(C)C)c(C(=O)N[C@H]3CCCc4ccccc43)cnc2c1-c1cncc(Cl)c1` [Example 362] are 7.00, 4.52 and below 10 µg/mL.
The corresponding values for `COc1cc(-c2c(C)nn3c(C(C)C)c(C(=O)N[C@H]4CCCc5ccccc54)cnc23)cc(C(F)(F)F)c1` [Example 363] are 7.20, 5.7 and below 10 µg/mL.
`Cc1nn2c(C(C)C)c(C(=O)N[C@H]3CCc4ccccc43)cnc2c1-c1cccc(CN2CCCC2)c1` [Example 365]: in series [1], the pEC50 is 5.50. The chromatographic logP in series [2] stood at 2.08. The same molecule returned an EC50 in series [3] below 10 µg/mL.
On to `Cc1nn2c(C(C)C)c(C(=O)N[C@H]3CCc4ccccc43)cnc2c1-c1cccc(CN(C)C)c1` [Example 366], for which the negative-log EC50 (pEC50) in series [1] is 5.80. The same molecule yielded a chromatographic logP in series [2] of 1.95. Also, in series [3], the EC50 is below 10 µg/mL.
In the same order, the values of `Cc1nn2c(C(C)C)c(C(=O)N[C@H]3CCc4ccccc43)cnc2c1-c1cccc(COCC(F)(F)F)c1` [Example 367] are 6.80, 4.99 and below 10 µg/mL.
On to `Cc1nn2c(C(C)C)c(C(=O)N[C@H]3CCc4ccccc43)cnc2c1-c1cccc(COC(C)C)c1` [Example 369], for which, in series [1], the pEC50 is 7.70. Besides, the chromatographic logP in series [2] amounted to 5.25. In series [3], the EC50 is below 10 µg/mL.
`CCOCc1cccc(-c2c(C)nn3c(C(C)C)c(C(=O)N[C@H]4CCc5ccccc54)cnc23)c1` [Example 370]: in series [1], the pEC50 was 7.80. This molecule gave a chromatographic logP in series [2] of 4.86. Also, in series [3], the EC50 is below 1 µg/mL.
In the same order, the values of `Cc1nn2c(C(C)C)c(C(=O)N[C@H]3CCc4ccccc43)cnc2c1-c1cccc(N2CCC2)c1` [Example 372] are 7.80, 4.67 and below 1 µg/mL.
In the same order, the values of `CCN(C)c1cccc(-c2c(C)nn3c(C(C)C)c(C(=O)N[C@H]4CCc5ccccc54)cnc23)c1` [Example 373] are 7.40, 3.48 and below 1 µg/mL.
The corresponding values for `COCCn1cc(-c2c(C)nn3c(C(C)C)c(C(=O)N[C@H]4CCc5ccccc54)cnc23)cn1` [Example 375] are 6.70, 3.26 and below 10 µg/mL.
Turning to `COc1cc(Cl)cc(-c2c(C)nn3c(C(C)C)c(C(=O)N[C@H]4CCCc5ccccc54)cnc23)c1` [Example 378], in series [1], the pEC50 was 7.30. In series [2], this molecule gave a chromatographic logP of 5.55. Moreover, the EC50 in series [3] is below 1 µg/mL.
As for `CCN(CC)c1cccc(-c2c(C)nn3c(C(C)C)c(C(=O)N[C@H]4CCc5ccccc54)cnc23)c1` [Example 379], the pEC50 in series [1] was 7.00. For the same molecule, the chromatographic logP in series [2] was 2.81. Further, the EC50 in series [3] was below 1 µg/mL.
Take `CSCc1cccc(-c2c(C)nn3c(C(C)C)c(C(=O)N[C@H]4CCc5ccccc54)cnc23)c1` [Example 388]: the pEC50 in series [1] was 8.10. In series [2], this molecule came in with a chromatographic logP of 5. For the same molecule, the EC50 in series [3] was below 1 µg/mL.
The corresponding values for `Cc1nn2c(C(C)C)c(C(=O)N[C@H]3CCc4ccccc43)cnc2c1-c1cccc(COCC2CC2)c1` [Example 389] are 6.60, 5.24 and below 10 µg/mL.
As for `CCCOCc1cccc(-c2c(C)nn3c(C(C)C)c(C(=O)N[C@H]4CCc5ccccc54)cnc23)c1` [Example 390], in series [1], the pEC50 is 7.40. The chromatographic logP in series [2] is 5.4. The molecule further showed an EC50 in series [3] below 10 µg/mL.
The corresponding values for `COc1cc(-c2c(C)nn3c(C(C)C)c(C(=O)N[C@H]4CCOc5ccccc54)cnc23)cc(C(F)(F)F)c1` [Example 391] are 7.60, 5.13 and below 1 µg/mL.
As for `Cc1nn2c(C(C)C)c(C(=O)N[C@H]3CCOc4ccccc43)cnc2c1-c1cccc(OC(F)(F)F)c1` [Example 394], the pEC50 in series [1] is 7.80. In addition, the chromatographic logP in series [2] was 5.19. The same molecule yielded an EC50 in series [3] below 0.1 µg/mL.
The corresponding values for `Cc1nn2c(C(C)C)c(C(=O)N[C@H]3CCc4ccccc43)cnc2c1-c1cnn(C(C)C)c1` [Example 398] are 7.70, 3.77 and below 1 µg/mL.

Broadly, the pEC50 is −log10 of the EC50, conventionally taken in molar units. In general, chromatographic logP refers to lipophilicity estimated from chromatographic retention. As usually defined, the EC50 is the midpoint of the concentration-response curve.
